Measurements taken from PubChem BioAssay (NCI).
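GI50: concentration for 50% inhibition of growth. At the TGI there is no net growth.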

Tests used:
Experiment in all cases: NCI tumour cell line growth inhibition, 384-well format
786-0 renal = system: 786-0 renal
A498 renal = system: A498 renal
A549 NSCLC = system: A549 NSCLC
ACHN renal = system: ACHN renal
BT-549 breast = system: BT-549 breast
CAKI-1 renal = system: CAKI-1 renal
CCRF-CEM leukemia = system: CCRF-CEM leukemia
COLO 205 colon = system: COLO 205 colon
DU-145 prostate = system: DU-145 prostate
EKVX NSCLC = system: EKVX NSCLC
HCC-2998 colon = system: HCC-2998 colon
HCT-116 colon = system: HCT-116 colon
HCT-15 colon = system: HCT-15 colon
HL-60(TB) leukemia = system: HL-60(TB) leukemia
HOP-62 NSCLC = system: HOP-62 NSCLC
HOP-92 NSCLC = system: HOP-92 NSCLC
HS 578T breast = system: HS 578T breast
HT29 colon = system: HT29 colon
IGROV1 ovarian = system: IGROV1 ovarian
K-562 leukemia = system: K-562 leukemia
KM12 colon = system: KM12 colon
LOX IMVI melanoma = system: LOX IMVI melanoma
M14 melanoma = system: M14 melanoma
MALME-3M melanoma = system: MALME-3M melanoma
MCF7 breast = system: MCF7 breast
MDA-MB-231 breast = system: MDA-MB-231 breast
MDA-MB-435 melanoma = system: MDA-MB-435 melanoma
MDA-MB-468 breast = system: MDA-MB-468 breast
MOLT-4 leukemia = system: MOLT-4 leukemia
NCI-H226 lung = system: NCI-H226 lung
NCI-H23 lung = system: NCI-H23 lung
NCI-H322M lung = system: NCI-H322M lung
NCI-H460 NSCLC = system: NCI-H460 NSCLC
NCI-H522 lung = system: NCI-H522 lung
NCI/ADR-RES ovarian = system: NCI/ADR-RES ovarian
OVCAR-3 ovarian = system: OVCAR-3 ovarian
OVCAR-4 ovarian = system: OVCAR-4 ovarian
OVCAR-5 ovarian = system: OVCAR-5 ovarian
OVCAR-8 ovarian = system: OVCAR-8 ovarian
PC-3 prostate = system: PC-3 prostate
RPMI-8226 leukemia = system: RPMI-8226 leukemia
RXF 393 renal = system: RXF 393 renal
SF-268 CNS = system: SF-268 CNS
SF-295 CNS = system: SF-295 CNS
SF-539 CNS = system: SF-539 CNS
SK-MEL-28 melanoma = system: SK-MEL-28 melanoma
SK-MEL-5 melanoma = system: SK-MEL-5 melanoma
SK-OV-3 ovarian = system: SK-OV-3 ovarian
SN12C renal = system: SN12C renal
SNB-19 CNS = system: SNB-19 CNS
SNB-75 CNS = system: SNB-75 CNS
SR leukemia = system: SR leukemia
SW-620 colon = system: SW-620 colon
T-47D breast = system: T-47D breast
TK-10 renal = system: TK-10 renal
U251 glioblastoma = system: U251 glioblastoma
UACC-257 melanoma = system: UACC-257 melanoma
UO-31 renal = system: UO-31 renal
SK-MEL-2 melanoma = system: SK-MEL-2 melanoma
UACC-62 melanoma = system: UACC-62 melanoma

With CCCS(=O)(=O)Nc1ccc(F)c(C(=O)c2c[nH]c3ncc(Cl)cc23)c1F the GI50 ([…]-0 renal) was 10.9 µM, the TGI (786-0 renal) was 25.6 µM and the GI50 (A498 renal) was 5.21 µM. For the same compound, the TGI (A498 renal) was 20.3 µM, the GI50 (A549 NSCLC) was 12.3 µM and the TGI (A549 NSCLC) was 41.2 µM. It also gave a GI50 (ACHN renal) of 4.26 µM, a TGI (ACHN renal) of 18.7 µM and a GI50 (BT-549 breast) of 15.5 µM. The TGI (BT-549 breast) was 29.3 µM, the GI50 (CAKI-1 renal) was 6.54 µM and the TGI (CAKI-1 renal) was 46 µM. For the same compound, the GI50 (CCRF-CEM leukemia) was 11.7 µM, the TGI (CCRF-CEM leukemia) was 24 µM and the GI50 (COLO 205 colon) was 0.144 µM. For the same compound, the TGI (COLO 205 colon) was 13.6 µM, the GI50 (DU-145 prostate) was 9.18 µM and the TGI (DU-145 prostate) was 27.9 µM. The GI50 (EKVX NSCLC) was 16.3 µM, the TGI (EKVX NSCLC) was 41.3 µM and the GI50 (HCC-2998 colon) was 20.6 µM. The TGI (HCC-2998 colon) was 35.1 µM, the GI50 (HCT-116 colon) was 8.39 µM and the TGI (HCT-116 colon) was 23.8 µM. For the same compound, the GI50 (HCT-15 colon) was 9.16 µM, the TGI (HCT-15 colon) was 22 µM and the GI50 (HL-60(TB) leukemia) was 11.2 µM. The TGI (HL-60(TB) leukemia) was 23.3 µM, the GI50 (HOP-62 NSCLC) was 13.3 µM and the TGI (HOP-62 NSCLC) was 32.5 µM. For the same compound, the GI50 (HOP-92 NSCLC) was 15 µM, the TGI (HOP-92 NSCLC) was 36.3 µM and the GI50 (HS 578T breast) was 4.5 µM. For the same compound, the TGI (HS 578T breast) was 15.4 µM, the GI50 (HT29 colon) was 0.71 µM and the TGI (HT29 colon) was 17.1 µM. It also gave a GI50 (IGROV1 ovarian) of 4.47 µM, a TGI (IGROV1 ovarian) of 17.3 µM and a GI50 (K-562 leukemia) of 11.3 µM. For the same compound, the TGI (K-562 leukemia) was 23.7 µM, the GI50 (KM12 colon) was 14.3 µM and the TGI (KM12 colon) was 33.3 µM. It also gave a GI50 (LOX IMVI melanoma) of 2.64 µM, a TGI (LOX IMVI melanoma) of 15.9 µM and a GI50 (M14 melanoma) of 0.0582 µM. For the same compound, the TGI (M14 melanoma) was 2.1 µM, the GI50 (MALME-3M melanoma) was 0.0363 µM and the TGI (MALME-3M melanoma) was 0.118 µM. It also gave a GI50 (MCF7 breast) of 20.3 µM, a TGI (MCF7 breast) of 50.7 µM and a GI50 (MDA-MB-231 breast) of 15.3 µM. It also gave a TGI (MDA-MB-231 breast) of 29.8 µM, a GI50 (MDA-MB-435 melanoma) of 0.681 µM and a TGI (MDA-MB-435 melanoma) of 17.7 µM. It also gave a GI50 (MDA-MB-468 breast) of 10.3 µM, a TGI (MDA-MB-468 breast) of 23.5 µM and a GI50 (MOLT-4 leukemia) of 12.3 µM. It also gave a TGI (MOLT-4 leukemia) of 24.9 µM, a GI50 (NCI-H226 lung) of 16.5 µM and a TGI (NCI-H226 lung) of 32.6 µM. For the same compound, the GI50 (NCI-H23 lung) was 18.3 µM, the TGI (NCI-H23 lung) was 37.8 µM and the GI50 (NCI-H322M lung) was 10.1 µM. For the same compound, the TGI (NCI-H322M lung) was 80.2 µM, the GI50 (NCI-H460 NSCLC) was 6.96 µM and the TGI (NCI-H460 NSCLC) was 21.3 µM. For the same compound, the GI50 (NCI-H522 lung) was 16.1 µM, the TGI (NCI-H522 lung) was 32.1 µM and the GI50 (NCI/ADR-RES ovarian) was 17.1 µM. The TGI (NCI/ADR-RES ovarian) was 33.6 µM, the GI50 (OVCAR-3 ovarian) was 13.5 µM and the TGI (OVCAR-3 ovarian) was 29.7 µM. It also gave a GI50 (OVCAR-4 ovarian) of 21.1 µM, a TGI (OVCAR-4 ovarian) of 59.1 µM and a GI50 (OVCAR-5 ovarian) of 19.2 µM. It also gave a TGI (OVCAR-5 ovarian) of 64.3 µM, a GI50 (OVCAR-8 ovarian) of 13.5 µM and a TGI (OVCAR-8 ovarian) of 39.5 µM. It also gave a GI50 (PC-3 prostate) of 16.3 µM, a TGI (PC-3 prostate) of 41 µM and a GI50 (RPMI-8226 leukemia) of 4.76 µM. It also gave a TGI (RPMI-8226 leukemia) of 15.7 µM, a GI50 (RXF 393 renal) of 4.12 µM and a TGI (RXF 393 renal) of 13.8 µM. The GI50 (SF-268 CNS) was 17.5 µM, the TGI (SF-268 CNS) was 44.7 µM and the GI50 (SF-295 CNS) was 7.44 µM. It also gave a TGI (SF-295 CNS) of 27.3 µM, a GI50 (SF-539 CNS) of 15.1 µM and a TGI (SF-539 CNS) of 35.3 µM. For the same compound, the GI50 (SK-MEL-28 melanoma) was 0.0544 µM, the TGI (SK-MEL-28 melanoma) was 0.549 µM and the GI50 (SK-MEL-5 melanoma) was 1.05 µM. The TGI (SK-MEL-5 melanoma) was 15 µM, the GI50 (SK-OV-3 ovarian) was 4.11 µM and the TGI (SK-OV-3 ovarian) was 19.8 µM. For the same compound, the GI50 (SN12C renal) was 19.6 µM, the TGI (SN12C renal) was 68.3 µM and the GI50 (SNB-19 CNS) was 31.3 µM. For the same compound, the TGI (SNB-19 CNS) was 86 µM, the GI50 (SNB-75 CNS) was 11.2 µM and the TGI (SNB-75 CNS) was 34.2 µM. It also gave a GI50 (SR leukemia) of 3.93 µM, a TGI (SR leukemia) of 14.2 µM and a GI50 (SW-620 colon) of 31.6 µM. The TGI (SW-620 colon) was 60 µM, the GI50 (T-47D breast) was 17.7 µM and the TGI (T-47D breast) was 55.6 µM. For the same compound, the GI50 (TK-10 renal) was 10.3 µM, the TGI (TK-10 renal) was 28.4 µM and the GI50 (U251 glioblastoma) was 13.1 µM. It also gave a TGI (U251 glioblastoma) of 27.2 µM, a GI50 (UACC-257 melanoma) of 0.183 µM and a TGI (UACC-257 melanoma) of 1.18 µM. It also gave a GI50 (UO-31 renal) of 13.3 µM and a TGI (UO-31 renal) of 36.6 µM.
For O=NN(CCCl)C(=O)NCCCl, the GI50 ([…]-0 renal) was 43.3 µM, the GI50 (BT-549 breast) was 36 µM and the GI50 (CAKI-1 renal) was 81.2 µM. For the same compound, the GI50 (CCRF-CEM leukemia) was 22.3 µM, the TGI (CCRF-CEM leukemia) was 40.9 µM and the GI50 (HCT-116 colon) was 49.8 µM. The GI50 (HCT-15 colon) was 46.5 µM, the GI50 (HL-60(TB) leukemia) was 15.1 µM and the TGI (HL-60(TB) leukemia) was 28.5 µM. The GI50 (HOP-62 NSCLC) was 34.6 µM, the GI50 (K-562 leukemia) was 46.5 µM and the GI50 (LOX IMVI melanoma) was 24.2 µM. For the same compound, the GI50 (M14 melanoma) was 69.9 µM, the GI50 (MALME-3M melanoma) was 75.9 µM and the GI50 (MDA-MB-231 breast) was 55.9 µM. The GI50 (MDA-MB-468 breast) was 23.7 µM, the GI50 (MOLT-4 leukemia) was 15.6 µM and the TGI (MOLT-4 leukemia) was 29.5 µM. It also gave a GI50 (NCI-H522 lung) of 32.4 µM, a GI50 (OVCAR-8 ovarian) of 97.8 µM and a GI50 (RPMI-8226 leukemia) of 20 µM. For the same compound, the TGI (RPMI-8226 leukemia) was 48.7 µM, the GI50 (RXF 393 renal) was 56.9 µM and the GI50 (SF-268 CNS) was 15.9 µM. It also gave a GI50 (SF-295 CNS) of 25.4 µM, a TGI (SF-295 CNS) of 73 µM and a GI50 (SF-539 CNS) of 24.4 µM. The TGI (SF-539 CNS) was 90.1 µM, the GI50 (SK-MEL-2 melanoma) was 61.5 µM and the GI50 (SN12C renal) was 74.1 µM. The GI50 (SNB-19 CNS) was 56.2 µM, the GI50 (SNB-75 CNS) was 26.7 µM and the GI50 (SW-620 colon) was 54.2 µM. It also gave a GI50 (U251 glioblastoma) of 23.9 µM and a GI50 (UACC-62 melanoma) of 19.4 µM.
